molecular target: T1, human ferroportin (Fpn-HaloTag fusion protein) (Homo sapiens, UniProt Q9NP59); experiment: ferroportin internalization assay (inhibition of hepcidin-induced internalization of Fpn, MDCK-FPN-HaloTag cells); format: cell-based; conditions: 100 nM hepcidin, overnight, dilution series 0.04 to 40 μM
T1 construct: expressed in transfected cells
T1 sequence (Q9NP59 1-571): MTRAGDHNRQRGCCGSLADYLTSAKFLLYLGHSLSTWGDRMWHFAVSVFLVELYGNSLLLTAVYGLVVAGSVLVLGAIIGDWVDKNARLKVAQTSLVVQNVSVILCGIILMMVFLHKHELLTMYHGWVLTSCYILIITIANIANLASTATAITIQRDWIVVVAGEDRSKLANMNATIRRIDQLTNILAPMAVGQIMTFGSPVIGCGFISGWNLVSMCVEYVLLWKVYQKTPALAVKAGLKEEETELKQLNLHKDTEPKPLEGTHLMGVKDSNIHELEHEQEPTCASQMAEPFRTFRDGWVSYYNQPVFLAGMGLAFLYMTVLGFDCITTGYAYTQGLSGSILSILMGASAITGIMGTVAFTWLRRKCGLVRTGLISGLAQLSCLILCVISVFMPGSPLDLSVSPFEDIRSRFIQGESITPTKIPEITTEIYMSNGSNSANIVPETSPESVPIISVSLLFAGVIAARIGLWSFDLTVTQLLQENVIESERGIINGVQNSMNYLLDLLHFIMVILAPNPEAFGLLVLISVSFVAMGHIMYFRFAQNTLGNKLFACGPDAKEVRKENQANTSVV
Procedure: The hepcidin-antagonistic action of the quinoline compounds of the present invention was determined by means of the “ferroportin internalization assay” described in the following.
Organic compounds of low molecular weight which counteract the biological actions of hepcidin on its receptor, the iron exporter ferroportin (Fpn), were identified on the basis of their ability to inhibit hepcidin-induced internalization of Fpn in living cells. For this purpose, a stable cell line (Madin-Darby canine kidney, MDCK) was produced which constitutively expresses human ferroportin fused recombinantly at its C terminus with a fluorescent reporter protein (HaloTag®, Promega Corp.). The internalization of Fpn was monitored by labelling these cells with fluorescent ligands (HaloTag®-TMR, tetramethylrhodamine) which join covalently on to the HaloTag reporter gene fused with the Fpn. […] Optimized image analysis algorithms were used to ascertain the cell surface and to quantify the corresponding membrane fluorescence associated with the Fpn-HaloTag fusion protein. This assay allows a quantitative image-based analysis in order to quickly evaluate compounds which can block hepcidin-induced internalization of Fpn. This assay is a direct in vitro pendant of the in vivo action mechanism proposed for medicament candidates and is therefore suitable as an initial assay with a high throughput for identifying compounds which counteract the action of hepcidin on its receptor ferroportin.
• 7,500 cells per well (MDCK-FPN-HaloTag) were transinoculated in 50 μl DMEM medium (Dulbeccos modified Eagle medium with 10% foetal bovine serum (FBS), which contained 1% penicillin, 1% streptomycin and 450 μg/ml of G-418) in microtitre plates with 384 wells, (384 Cell carrier plates, Perkin Elmer, cat. no. 6007430), followed by incubation overnight at 37° C./5% CO2. • The volume of the medium was reduced to 10 μl, and 10 μl of 5 μM HaloTag-TMR ligands (Promega, cat. no. G 8251) were added in DMEM medium in order to stain the Fpn-HaloTag fusion protein. • 15 min incubation at 37° C./5% CO2 • The HaloTag-TMR ligand was removed and the cells were washed with fresh DMEM medium and the volume was reduced to 20 μl of DMEM medium. • 3 μl per well of a solution of the test compound (dissolved DMSO) were added ([…]). • 7 μl of […] hepcidin (Peptides International, cat. no. PLP-4392-s, 100 μM stock solution diluted in water in DMEM medium) were added per well up to a final hepcidin concentration of 100 nM. • The cells were incubated overnight at 37° C./5% CO2. • The cells were fixed by adding paraformaldehyde (PFA, Electron Microscopy Sciences, cat. no. 15710-S) directly to the cells up to a final concentration of 4%, followed by incubation at room temperature for 15-20 minutes. • The PFA solution was removed and the cells were washed with PBS (phosphate-buffered saline solution), in each case 30 μl remaining in the plate. • 20 μl of Draq5 (Biostatus, cat. no. DR 51000) were added up to a final concentration of 2.5 μM in order to stain the cell nuclei, and the plates were sealed with a foil plate seal. • The plates were analysed with the Opera Plate Imager (Opera Confocal Plate Imager, Perkin Elmer) with 7 images per well; 440 ms exposure time per image, […] focal point height.

SMILES | IC50
Oc1c(C(c2ccccc2Cl)N2CCOCC2)ccc2cccnc12 (stereo not drawn) [Example 13, 7-[(2-Chloro-phenyl)-morpholin-4-yl-methyl]-quinolin-8-ol] | < 50 µM
CN(Cc1ccccc1)C(c1ccncc1)c1ccc2cccnc2c1O (stereo not drawn) [Example 19, 7-[(Benzyl-methyl-amino)-pyridin-4-yl-methyl]-quinolin-8-ol] | < 50 µM
Oc1c(C(c2ccccn2)N2CCC(Cc3ccccc3)CC2)ccc2cccnc12 (stereo not drawn) [Example 7, 7-[(4-Benzyl-piperidin-1-yl)-pyridin-2-yl-methyl]-quinolin-8-ol] | < 50 µM
CCOC(=O)N1CCN(C(c2ccccn2)c2ccc3cccnc3c2O)CC1 (stereo not drawn) [Example 26, 4-[(8-Hydroxy-quinolin-7-yl)-pyridin-2-yl-methyl]-piperazine-1-carboxylic acid ethyl ester] | < 50 µM
O=C(Oc1c(CN2CCOCC2)cc(Cl)c2cccnc12)c1ccco1 [Example 3, Furan-2-carboxylic acid 5-chloro-7-morpholin-4-ylmethyl-quinolin-8-yl ester] | < 50 µM
Oc1c(C(c2ccccn2)N2CCOCC2)ccc2cccnc12 (stereo not drawn) [Example 1, 7-(Morpholin-4-yl-pyridin-2-yl-methyl)-quinolin-8-ol] | < 50 µM
CC1CN(C(c2ccncc2)c2ccc3cccnc3c2O)CC(C)O1 (stereo not drawn) [Example 18, 7-[(2,6-Dimethyl-morpholin-4-yl)-pyridin-4-yl-methyl]-quinolin-8-ol] | < 50 µM
Oc1c(C(c2ccccn2)N2CCOCC2)cc(Cl)c2cccnc12 (stereo not drawn) [Example 25, 5-Chloro-7-(morpholin-4-yl-pyridin-2-yl-methyl)-quinolin-8-ol] | < 50 µM
Oc1c(C(c2ccc(Cl)cc2)N2CCOCC2)cc(Cl)c2cccnc12 (stereo not drawn) [Example 2, 5-Chloro-7-[(4-chloro-phenyl)-morpholin-4-yl-methyl]-quinolin-8-ol] | < 50 µM
OCCN1CCN(C(c2ccccn2)c2ccc3cccnc3c2O)CC1 (stereo not drawn) [Example 8] | < 50 µM
CC1CN(C(c2ccc(F)cc2)c2ccc3cccnc3c2O)CC(C)O1 (stereo not drawn) [Example 20, 7-[(2,6-Dimethyl-morpholin-4-yl)-(4-fluoro-phenyl)-methyl]-quinolin-8-ol] | < 50 µM
Oc1c(CN2CCOCC2)ccc2cccnc12 [Example 22, 7-Morpholin-4-yl-methyl-quinolin-8-ol] | < 50 µM
Oc1c(C(Nc2ccccn2)c2cccnc2)cc(Cl)c2cccnc12 (stereo not drawn) [Example 6, 5-Chloro-7-[pyridin-3-yl-(pyridin-2-ylamino)-methyl]-quinolin-8-ol] | < 50 µM
COc1cc(COc2c(CN3CCOCC3)ccc3cccnc23)cc(OC)c1OC [Example 23, 7-Morpholin-4-ylmethyl-8-(3,4,5-trimethoxybenzyloxy)-quinoline] | > 100 µM
NC(=O)c1ccc(C(c2ccc3cccnc3c2O)N2CCOCC2)cc1 (stereo not drawn) [Example 24, 4-[(8-Hydroxy-quinolin-7-yl)-morpholin-4-yl-methyl]-benzamide] | < 50 µM
N#Cc1ccc(C(c2ccc3cccnc3c2O)N2CCOCC2)cc1 (stereo not drawn) [Example 10, 4-[(8-Hydroxy-quinolin-7-yl)-morpholin-4-yl-methyl]-benzonitrile] | < 50 µM
Cc1ccccc1C(c1ccc2cccnc2c1O)N1CCOCC1 (stereo not drawn) [Example 12, 7-(Morpholin-4-yl-o-tolyl-methyl)-quinolin-8-ol] | < 50 µM
Oc1c(C(c2cnccn2)N2CCOCC2)ccc2cccnc12 (stereo not drawn) [Example 15, 7-(Morpholin-4-yl-pyrazin-2-yl-methyl)-quinolin-8-ol] | < 50 µM
Oc1c(C(c2nccn2Cc2ccccc2)N2CCOCC2)ccc2cccnc12 (stereo not drawn) [Example 16] | < 50 µM
Oc1c(C(NCc2ccccc2)c2ccncc2)ccc2cccnc12 (stereo not drawn) [Example 17, 7-(Benzylamino-pyridin-4-yl-methyl)-quinolin-8-ol] | < 50 µM
Oc1c(C(c2cccs2)N2CCOCC2)ccc2cccnc12 (stereo not drawn) [Example 21, 7-(Morpholin-4-yl-thiophen-2-yl-methyl)-quinolin-8-ol] | < 50 µM
O=C(Oc1c(CN2CCOCC2)cc(Cl)c2cccnc12)c1ccccc1 [Example 5, Benzoic acid 5-chloro-7-morpholin-4-ylmethyl-quinolin-8-yl ester] | < 50 µM
COc1ccccc1C(c1ccc2cccnc2c1O)N1CCOCC1 (stereo not drawn) [Example 14, 7-[(2-Methoxy-phenyl)-morpholin-4-yl-methyl]-quinolin-8-ol] | < 50 µM

Other lines, results leading:

IC50 | SMILES
> 100 µM | Oc1c(CN2CCOCC2)cc(CN2CCOCC2)c2cccnc12 [Example 38, 5,7-Bis-morpholin-4-ylmethyl-quinolin-8-ol]
< 50 µM | CN1CCN(C(c2ccccn2)c2ccc3cccnc3c2O)CC1 (stereo not drawn) [Example 35, 7-[(4-Methyl-piperazin-1-yl)-pyridin-2-yl-methyl]-quinolin-8-ol]
< 50 µM | COc1ccc(C(c2ccc3cccnc3c2O)N2CCOCC2)cc1 (stereo not drawn) [Example 41, 7-[(4-Methoxy-phenyl)-morpholin-4-yl-methyl]-quinolin-8-ol]
< 50 µM | Oc1c(C(c2ccccn2)N2CCN(c3ccccn3)CC2)ccc2cccnc12 (stereo not drawn) [Example 37, 7-[Pyridin-2-yl-(4-pyridin-2-yl-piperazin-1-yl)-methyl]-quinolin-8-ol]
< 50 µM | CC1CN(C(c2ccccn2)c2cc(Cl)c3cccnc3c2O)CC(C)O1 (stereo not drawn) [Example 33]
< 50 µM | Oc1c(C(c2cccnc2)N2CCOCC2)ccc2cccnc12 (stereo not drawn) [Example 29, 7-(Morpholin-4-yl-pyridin-3-yl-methyl)-quinolin-8-ol]
< 50 µM | Oc1c(C(c2ccccn2)N2CCC(c3ccccc3F)CC2)ccc2cccnc12 (stereo not drawn) [Example 36, 7-{[4-(2-Fluoro-phenyl)-piperidin-1-yl]-pyridin-2-yl-methyl}-quinolin-8-ol]
< 50 µM | Oc1c(C(c2ccc(F)cc2)N2CCOCC2)ccc2cccnc12 (stereo not drawn) [Example 28]
< 50 µM | Oc1c(C(c2ccc(Cl)cc2)N2CCOCC2)ccc2cccnc12 (stereo not drawn) [Example 40, 7-[(4-Chloro-phenyl)-morpholin-4-yl-methyl]-quinolin-8-ol]
< 50 µM | Oc1c(C(c2ccccn2)N2CCCCC2)ccc2cccnc12 (stereo not drawn) [Example 27, 7-(Piperidin-1-yl-pyridin-2-yl-methyl)-quinolin-8-ol]
< 50 µM | Oc1c(C(c2ccncc2)N2CCOCC2)ccc2cccnc12 (stereo not drawn) [Example 30, 7-(Morpholin-4-yl-pyridin-4-yl-methyl)-quinolin-8-ol]
< 50 µM | Oc1c(C(c2ccccn2)N2CCN(Cc3ccccc3)CC2)ccc2cccnc12 (stereo not drawn) [Example 34, 7-[(4-Benzyl-piperazin-1-yl)-pyridin-2-yl-methyl]quinolin-8-ol]
< 50 µM | Oc1c(CN2CCOCC2)cc(Cl)c2cccnc12 [Example 31, 5-Chloro-7-morpholin-4-ylmethyl-quinolin-8-ol]
< 50 µM | Oc1c(C(c2ccccn2)N2CCCCC2)cc(Cl)c2cccnc12 (stereo not drawn) [Example 32, 5-Chloro-7-(piperidin-1-yl-pyridin-2-yl-methyl)-quinolin-8-ol]

same assay, conditions: 10 μM substance conc., hepcidin-induced Fpn internalization

I [%] (median inhibition [%] at 10 μM substance conc.) | SMILES
<50% | O=C(Oc1c(CN2CCOCC2)cc(Cl)c2cccnc12)c1ccco1 [Example 3, Furan-2-carboxylic acid 5-chloro-7-morpholin-4-ylmethyl-quinolin-8-yl ester]
>50% | Oc1c(C(c2ccccn2)N2CCOCC2)ccc2cccnc12 (stereo not drawn) [Example 1, 7-(Morpholin-4-yl-pyridin-2-yl-methyl)-quinolin-8-ol]
<50% | Oc1c(C(c2ccc(Cl)cc2)N2CCOCC2)cc(Cl)c2cccnc12 (stereo not drawn) [Example 2, 5-Chloro-7-[(4-chloro-phenyl)-morpholin-4-yl-methyl]-quinolin-8-ol]
<50% | Oc1c(C(Nc2ccccn2)c2cccnc2)cc(Cl)c2cccnc12 (stereo not drawn) [Example 6, 5-Chloro-7-[pyridin-3-yl-(pyridin-2-ylamino)-methyl]-quinolin-8-ol]
<50% | O=C(Oc1c(CN2CCOCC2)cc(Cl)c2cccnc12)c1ccccc1 [Example 5, Benzoic acid 5-chloro-7-morpholin-4-ylmethyl-quinolin-8-yl ester]

Source: patent US20120196853A1, “Novel Quinoline-Hepcidine Antagonists” (VIFOR (INTERNATIONAL) AG, priority 2009, published 2012)
